Data from patent publication US12228572B2, “Enhanced expression of polo-like kinase 3 (PLK3) in human immunodeficiency virus (HIV)-infected cells” (priority 2021, dated 2025).

Biological target: T1, human PLK3 (Homo sapiens, UniProt Q9H4B4)
T1 construct: expressed in transfected cells
Type: cell-based

T1 sequence (Q9H4B4 whole entry): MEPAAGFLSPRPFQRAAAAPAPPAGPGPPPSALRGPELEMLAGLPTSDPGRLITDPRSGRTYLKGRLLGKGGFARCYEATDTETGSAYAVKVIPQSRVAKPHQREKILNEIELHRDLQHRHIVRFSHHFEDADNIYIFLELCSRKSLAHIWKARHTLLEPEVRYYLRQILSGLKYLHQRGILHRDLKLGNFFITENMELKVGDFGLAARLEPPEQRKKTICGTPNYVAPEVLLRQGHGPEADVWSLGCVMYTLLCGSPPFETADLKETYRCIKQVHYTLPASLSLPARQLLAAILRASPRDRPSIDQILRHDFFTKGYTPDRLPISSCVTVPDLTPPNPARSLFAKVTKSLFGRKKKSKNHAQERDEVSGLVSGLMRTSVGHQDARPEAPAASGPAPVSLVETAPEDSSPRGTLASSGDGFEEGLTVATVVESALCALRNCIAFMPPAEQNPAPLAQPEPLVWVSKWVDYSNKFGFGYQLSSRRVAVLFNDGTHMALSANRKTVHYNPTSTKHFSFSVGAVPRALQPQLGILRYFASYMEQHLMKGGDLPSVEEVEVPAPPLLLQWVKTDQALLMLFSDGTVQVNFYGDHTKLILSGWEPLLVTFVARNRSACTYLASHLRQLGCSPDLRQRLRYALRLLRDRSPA

Compound: COc1cc2ncn(-c3cc(OCc4ccccc4C(F)(F)F)c(C(N)=O)s3)c2cc1OC [GW843682X]
- effect on the anti-HIV-1 ability of human PLK3: can inhibit the anti-HIV-1 ability of human PLK3
- expression level of PLK3: not changed
